We go through four compounds from ChEMBL document CHEMBL5543158, “Design of Evodiamine-Glucose Conjugates with Improved In Vivo Antitumor Activity” (J Med Chem, 2024).

≈ marks a conversion by molar mass, not a printed value.

The nature of data set [1]: Solubility of the compound in double distilled water measured upto 30 mins by UV-vis spectrophotometry. It counts as physicochemical.
Data set [2] has as its system U-87 MG. Briefly: Antiproliferative activity against human U-87 MG cells measured after 72 hrs by CCK-8 cells. It counts as functional, cell-based, U-87MG ATCC.
The test system of data set [3] is HCT-116. As to the kind of experiment: Antiproliferative activity against human HCT116 cells measured after 72 hrs by CCK-8 cells. It is filed as functional, cell-based. The settings on record: HCT-116, 72 h.
The test system of data set [4] is A549. As to the kind of experiment: Antiproliferative activity against human A549 cells measured after 72 hrs by CCK-8 cells. It counts as functional, cell-based. The settings on record: A549, 72 h.
The nature of data set [5]: Toxicity in mouse xenografted with human HCT-116 cells assessed as organ damage by measuring change in spleen at 5 mg/kg, ip twice a day administered 21 consecutive days. It counts as organism-based. The settings on record: in vivo. In general terms: In xenograft studies the graft and the host belong to different species.
For data set [6], the system named is HCT-116. Briefly: In vivo antitumor effect in human HCT-116 cells xenografted mouse model assessed as tumor growth inhibition at 5 mg/kg, ip twice a day administered 21 consecutive days. It counts as functional. The note with it: read-out: TGI.
Data set [7] can be described thus: Cytotoxicity against HUVEC after 72 hrs by CCK-8 assay. It is filed as toxicity, cell-based. The note with it: human, HUVEC cells. On the technique in general: Tetrazolium dyes change colour on reduction, which living cells bring about.
Data set [8] can be described thus: Toxicity in mouse xenografted with human HCT-116 cells assessed as organ damage by measuring thickened alveolar wall in lungs at 5 mg/kg, ip twice a day administered 21 consecutive days. It counts as organism-based. The settings on record: in vivo.
The nature of data set [9]: Toxicity in mouse xenografted with human HCT-116 cells assessed as organ damage by measuring change in heart at 5 mg/kg, ip twice a day administered 21 consecutive days. The note with it: in vivo. It counts as organism-based.
Data set [10] can be described thus: Toxicity in mouse xenografted with human HCT-116 cells assessed as kidney damage by measuring atrophy of glomeruli at 5 mg/kg, ip twice a day administered 21 consecutive days. The note with it: in vivo. It is filed as organism-based.
Data set [11] has as its system HCT-116. Briefly: Antiproliferative activity against human HCT116 cells in presence of 5 uM phloretin measured after 72 hrs by CCK-8 assay. It counts as functional, cell-based. The note with it: HCT-116, 72 h.
Data set [12] deals with HCT-116. As to the kind of experiment: Antiproliferative activity against human HCT116 cells in presence of 10 uM phloretin measured after 72 hrs by CCK-8 assay. It is filed as functional, cell-based. The settings on record: HCT-116, 72 h.
Data set [13] in a line: Toxicity in mouse xenografted with human HCT-116 cells assessed as liver damage by measuring enlarged sizes of vacuole at 5 mg/kg, ip twice a day administered 21 consecutive days. It counts as organism-based. The settings on record: in vivo.

Usually solubility stands for how much of the substance goes into solution per volume. Regarding `CN1c2ccc(F)cc2C(=O)N2CCc3c([nH]c4ccc(OCc5cn(CCCO[C@@H]6O[C@H](CO)[C@@H](O)[C@H](O)[C@H]6O)nn5)cc34)[C@H]21`, the solubility at 0.5 h in data set [1] amounted to 2020 µg/mL (≈ 3.16 mM).
Usually IC50 stands for the midpoint of a concentration-inhibition curve. As to `CN1c2ccc(F)cc2C(=O)N2CCc3c([nH]c4ccc(OC(=O)CCCC(=O)NCCCO[C@@H]5O[C@H](CO)[C@@H](O)[C@H](O)[C@H]5O)cc34)[C@H]21`, the half-inhibitory concentration (IC50) in [2], in [3] and in data set [4] was 54 nM throughout. The solubility at 0.5 h in data set [1] turned out to be 2470 µg/mL (≈ 3.68 mM).
For `CN1c2ccc(F)cc2C(=O)N2CCc3c([nH]c4ccc(O)cc34)[C@H]21`, the Activity entry in data set [5], in data set [8], in [9], in data set [10] and in data set [13] was “Toxic” each time. In [6], the inhibition in vivo at 5 mg/kg was 51%. The compound also gave an IC50 at 72 h in data set [7] of 16 nM. Moreover, the IC50 in data set [11] was 54 nM; in data set [12] it was 545 nM. This compound also registered a solubility at 0.5 h in [1] of 145 µg/mL (≈ 0.43 mM).
On to `CN1c2ccc(F)cc2C(=O)N2CCc3c([nH]c4ccc(OC(=O)CCC(=O)NCCCO[C@@H]5O[C@H](CO)[C@@H](O)[C@H](O)[C@H]5O)cc34)[C@H]21`, for which the IC50 in data set [2], in data set [3] and in data set [4] was 49 nM each time. The solubility at 0.5 h in [1] worked out at 1990 µg/mL (≈ 3.03 mM).
